In brackets after ≈: the same amount, converted by molar mass. Like-named read-outs stand apart in the source and are kept apart here.
Columns and labels:
[1] = system: Staphylococcus aureus; details: cited from earlier work
[2] = system: mouse lymphoma cells; test: in vitro mouse micronucleus aberration assay (MMA); format: cell-based
Procedure: (§1) In vitro toxicology. Experiments for assessing micronuclei in mouse lymphoma cells^19 myeloid cytotoxicity^20 and erythroid cytotoxicity^21 were performed as described previously.

[3] = system: Neisseria gonorrhoeae; details: cited from earlier work
[4] = molecular target: hERG (Homo sapiens, UniProt Q12809); test: In vitro ion channel function; details: hERG IC50, K^+ rectifying current/QT interval
[5] = molecular target: T1, Ito/Kv4.3 (Homo sapiens, UniProt Q9UK17); test: In vitro ion channel function; format: cell-based; details: Ito/Kv4.3 IC50, Transient outward K^+ early repolarization
T1 sequence (Q9UK17 1-655): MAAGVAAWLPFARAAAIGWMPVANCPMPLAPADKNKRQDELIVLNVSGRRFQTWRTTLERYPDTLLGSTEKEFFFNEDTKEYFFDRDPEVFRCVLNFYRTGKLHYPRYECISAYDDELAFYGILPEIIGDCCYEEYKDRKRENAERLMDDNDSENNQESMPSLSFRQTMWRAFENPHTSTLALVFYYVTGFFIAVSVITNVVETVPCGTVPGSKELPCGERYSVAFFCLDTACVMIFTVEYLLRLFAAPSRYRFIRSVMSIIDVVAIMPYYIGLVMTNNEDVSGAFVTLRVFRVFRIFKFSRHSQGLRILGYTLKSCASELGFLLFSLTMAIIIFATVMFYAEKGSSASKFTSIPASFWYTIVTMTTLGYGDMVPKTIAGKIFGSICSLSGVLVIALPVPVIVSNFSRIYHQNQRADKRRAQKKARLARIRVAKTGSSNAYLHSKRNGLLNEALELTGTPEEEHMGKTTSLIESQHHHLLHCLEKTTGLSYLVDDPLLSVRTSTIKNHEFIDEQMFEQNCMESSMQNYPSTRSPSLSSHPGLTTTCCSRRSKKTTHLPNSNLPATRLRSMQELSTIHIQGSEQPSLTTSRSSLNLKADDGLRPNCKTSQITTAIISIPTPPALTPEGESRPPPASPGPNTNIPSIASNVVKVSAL
Description: (§2) Supplement srep11827-s1.doc, table 3 | column: Table S2: In vitro ion channel function IC50 (µM)

[6] = molecular target: Kv1.5 (Homo sapiens, UniProt P22460); test: In vitro ion channel function; format: cell-based; details: Ikr/Kv1.5 IC50, Rapidly activating K^+ delayed rectifier
Sequence of Kv1.5 (P22460 whole entry): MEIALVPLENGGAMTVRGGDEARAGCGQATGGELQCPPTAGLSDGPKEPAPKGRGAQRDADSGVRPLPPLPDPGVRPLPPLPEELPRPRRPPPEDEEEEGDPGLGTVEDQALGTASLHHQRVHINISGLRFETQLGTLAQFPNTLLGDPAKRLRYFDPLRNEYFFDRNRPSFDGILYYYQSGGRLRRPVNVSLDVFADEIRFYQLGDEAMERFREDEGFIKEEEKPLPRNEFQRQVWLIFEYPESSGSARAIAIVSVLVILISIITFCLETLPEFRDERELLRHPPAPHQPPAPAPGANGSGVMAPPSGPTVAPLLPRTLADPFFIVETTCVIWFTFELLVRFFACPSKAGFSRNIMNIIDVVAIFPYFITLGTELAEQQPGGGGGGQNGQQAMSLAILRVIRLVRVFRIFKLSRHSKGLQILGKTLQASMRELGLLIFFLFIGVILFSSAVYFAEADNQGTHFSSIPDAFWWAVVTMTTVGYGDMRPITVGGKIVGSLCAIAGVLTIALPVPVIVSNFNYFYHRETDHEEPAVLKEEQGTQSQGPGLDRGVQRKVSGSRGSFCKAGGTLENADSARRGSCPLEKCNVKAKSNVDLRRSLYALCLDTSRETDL
Description: as §2

[7] = molecular target: hNav1.5 (Homo sapiens, UniProt Q14524); test: In vitro ion channel function; format: cell-based; details: hNav1.5 IC50, Initiation of cardiac action potential/QRS interval
Description: as §2

[8] = molecular target: Iks/Kv7.1 (Homo sapiens, UniProt P51787); test: In vitro ion channel function; format: cell-based; details: Iks/Kv7.1 IC50, Slowly activating K^+ delayed rectifier
Description: as §2

[9] = molecular target: hCav1.2 (Homo sapiens, UniProt Q13936); test: In vitro ion channel function; format: cell-based; details: hCav1.2 IC50, Ca^2+ entry into excitable cells
Sequence of hCav1.2 (P54289 25-1103): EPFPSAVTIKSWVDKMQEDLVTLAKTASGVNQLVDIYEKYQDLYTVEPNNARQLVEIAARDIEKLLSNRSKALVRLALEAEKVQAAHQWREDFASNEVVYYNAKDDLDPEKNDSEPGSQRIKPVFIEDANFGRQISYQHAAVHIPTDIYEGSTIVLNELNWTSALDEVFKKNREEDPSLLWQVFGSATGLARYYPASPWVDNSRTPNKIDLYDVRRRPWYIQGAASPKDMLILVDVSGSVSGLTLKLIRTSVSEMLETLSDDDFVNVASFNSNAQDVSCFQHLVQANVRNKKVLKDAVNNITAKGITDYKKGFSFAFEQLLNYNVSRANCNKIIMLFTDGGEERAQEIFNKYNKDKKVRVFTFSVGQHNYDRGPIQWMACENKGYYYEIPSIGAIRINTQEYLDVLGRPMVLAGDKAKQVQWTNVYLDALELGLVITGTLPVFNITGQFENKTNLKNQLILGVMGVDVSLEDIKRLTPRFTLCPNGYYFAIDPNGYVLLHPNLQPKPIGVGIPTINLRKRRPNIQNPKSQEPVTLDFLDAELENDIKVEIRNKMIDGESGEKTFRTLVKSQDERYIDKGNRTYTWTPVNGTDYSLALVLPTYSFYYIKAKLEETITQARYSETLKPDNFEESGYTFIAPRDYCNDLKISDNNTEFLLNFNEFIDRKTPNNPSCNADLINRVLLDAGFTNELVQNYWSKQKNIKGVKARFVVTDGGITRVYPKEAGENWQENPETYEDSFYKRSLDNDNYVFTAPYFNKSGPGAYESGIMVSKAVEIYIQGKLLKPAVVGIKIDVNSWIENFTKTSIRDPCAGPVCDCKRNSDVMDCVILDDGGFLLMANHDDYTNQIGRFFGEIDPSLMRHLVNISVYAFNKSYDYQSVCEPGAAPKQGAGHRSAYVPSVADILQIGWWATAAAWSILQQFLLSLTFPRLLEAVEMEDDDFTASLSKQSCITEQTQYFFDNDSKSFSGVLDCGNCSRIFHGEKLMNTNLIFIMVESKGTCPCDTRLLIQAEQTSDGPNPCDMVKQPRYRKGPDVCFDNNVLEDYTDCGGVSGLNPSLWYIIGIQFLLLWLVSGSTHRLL
Sequence of hCav1.2 (Q13936 whole entry): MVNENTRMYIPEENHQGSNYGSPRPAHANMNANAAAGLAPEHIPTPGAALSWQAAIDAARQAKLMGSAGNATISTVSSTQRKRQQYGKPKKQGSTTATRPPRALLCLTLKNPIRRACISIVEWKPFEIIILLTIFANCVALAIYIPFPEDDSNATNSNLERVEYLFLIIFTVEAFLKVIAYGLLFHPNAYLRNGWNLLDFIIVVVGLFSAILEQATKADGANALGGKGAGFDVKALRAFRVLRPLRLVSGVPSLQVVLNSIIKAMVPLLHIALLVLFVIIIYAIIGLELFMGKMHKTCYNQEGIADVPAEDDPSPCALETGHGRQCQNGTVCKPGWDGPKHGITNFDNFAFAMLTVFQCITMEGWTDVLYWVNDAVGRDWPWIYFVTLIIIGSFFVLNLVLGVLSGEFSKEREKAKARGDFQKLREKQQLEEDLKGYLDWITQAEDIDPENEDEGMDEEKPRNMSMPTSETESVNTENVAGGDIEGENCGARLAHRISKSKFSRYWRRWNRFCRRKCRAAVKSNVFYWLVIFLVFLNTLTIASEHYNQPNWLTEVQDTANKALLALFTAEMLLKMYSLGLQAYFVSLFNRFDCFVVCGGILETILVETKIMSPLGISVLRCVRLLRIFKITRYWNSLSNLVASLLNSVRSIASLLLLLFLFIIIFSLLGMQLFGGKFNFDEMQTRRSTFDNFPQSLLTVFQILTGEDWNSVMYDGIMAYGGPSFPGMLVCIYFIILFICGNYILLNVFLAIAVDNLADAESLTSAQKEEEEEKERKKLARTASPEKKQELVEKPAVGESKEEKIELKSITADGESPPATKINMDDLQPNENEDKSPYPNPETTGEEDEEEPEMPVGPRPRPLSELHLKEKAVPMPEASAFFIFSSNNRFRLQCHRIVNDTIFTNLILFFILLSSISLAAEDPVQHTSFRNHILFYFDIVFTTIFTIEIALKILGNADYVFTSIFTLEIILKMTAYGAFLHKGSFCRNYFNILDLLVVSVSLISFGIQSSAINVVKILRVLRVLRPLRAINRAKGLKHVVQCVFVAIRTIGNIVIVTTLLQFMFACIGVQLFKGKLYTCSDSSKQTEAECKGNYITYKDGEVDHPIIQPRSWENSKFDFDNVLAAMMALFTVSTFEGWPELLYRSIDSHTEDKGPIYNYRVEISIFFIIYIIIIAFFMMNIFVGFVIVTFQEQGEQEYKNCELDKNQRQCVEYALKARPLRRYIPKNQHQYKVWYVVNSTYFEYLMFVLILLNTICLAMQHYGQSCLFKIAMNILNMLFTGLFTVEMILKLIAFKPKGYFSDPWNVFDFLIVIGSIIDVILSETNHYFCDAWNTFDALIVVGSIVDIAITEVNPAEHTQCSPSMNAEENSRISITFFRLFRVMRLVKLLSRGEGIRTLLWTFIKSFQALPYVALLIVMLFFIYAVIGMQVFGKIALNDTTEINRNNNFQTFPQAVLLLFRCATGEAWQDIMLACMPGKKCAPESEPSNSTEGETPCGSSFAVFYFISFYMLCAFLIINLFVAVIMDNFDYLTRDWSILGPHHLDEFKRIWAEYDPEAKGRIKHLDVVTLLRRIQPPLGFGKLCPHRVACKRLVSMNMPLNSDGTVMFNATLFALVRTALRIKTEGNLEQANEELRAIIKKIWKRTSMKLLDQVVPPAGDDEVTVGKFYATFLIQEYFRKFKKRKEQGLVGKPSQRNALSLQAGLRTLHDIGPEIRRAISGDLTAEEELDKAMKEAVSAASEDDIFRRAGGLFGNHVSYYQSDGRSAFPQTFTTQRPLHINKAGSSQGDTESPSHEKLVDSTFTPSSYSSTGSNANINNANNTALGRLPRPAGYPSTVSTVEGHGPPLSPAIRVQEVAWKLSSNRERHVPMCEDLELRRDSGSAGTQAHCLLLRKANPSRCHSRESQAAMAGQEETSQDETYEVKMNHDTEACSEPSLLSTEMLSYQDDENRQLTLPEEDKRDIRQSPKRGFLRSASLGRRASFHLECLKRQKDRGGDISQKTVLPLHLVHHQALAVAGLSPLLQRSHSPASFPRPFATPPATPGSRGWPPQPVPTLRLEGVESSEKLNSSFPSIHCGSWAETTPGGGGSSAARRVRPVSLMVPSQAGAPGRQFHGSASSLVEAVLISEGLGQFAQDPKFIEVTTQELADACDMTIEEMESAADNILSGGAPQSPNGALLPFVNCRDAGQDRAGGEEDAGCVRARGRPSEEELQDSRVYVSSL
Sequence of hCav1.2 (Q08289 whole entry, further chain): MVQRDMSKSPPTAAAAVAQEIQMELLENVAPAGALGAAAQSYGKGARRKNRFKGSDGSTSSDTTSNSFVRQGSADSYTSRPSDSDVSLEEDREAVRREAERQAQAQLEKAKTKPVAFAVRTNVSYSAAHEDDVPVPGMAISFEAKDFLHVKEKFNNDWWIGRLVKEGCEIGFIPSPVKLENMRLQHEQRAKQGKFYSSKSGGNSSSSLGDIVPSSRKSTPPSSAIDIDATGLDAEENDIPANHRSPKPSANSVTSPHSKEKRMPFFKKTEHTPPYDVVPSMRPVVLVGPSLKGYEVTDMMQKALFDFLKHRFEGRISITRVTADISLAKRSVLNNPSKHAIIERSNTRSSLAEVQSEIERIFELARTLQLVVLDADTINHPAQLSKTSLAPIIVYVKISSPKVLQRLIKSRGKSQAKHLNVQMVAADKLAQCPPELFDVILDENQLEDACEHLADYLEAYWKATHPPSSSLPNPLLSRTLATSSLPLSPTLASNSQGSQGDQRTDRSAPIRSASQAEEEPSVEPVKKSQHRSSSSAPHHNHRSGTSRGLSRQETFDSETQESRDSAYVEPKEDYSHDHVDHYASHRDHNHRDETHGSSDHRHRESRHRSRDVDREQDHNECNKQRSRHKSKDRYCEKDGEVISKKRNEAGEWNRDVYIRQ
Description: as §2

[10] = system: S. aureus AP607004 (MRQR); test: MIC (CLSI broth microdilution); format: cell-based
[11] = system: S. pneumoniae ARC2205 (ERQR); test: MIC (CLSI broth microdilution); format: cell-based
[12] = system: S. aureus ARC516; test: MIC (CLSI broth microdilution); format: cell-based
[13] = system: N. gonorrhoeae ARC4676 (QR); format: cell-based
[14] = system: S. pneumoniae ATCC49619; test: MIC (CLSI broth microdilution); format: cell-based
[15] = system: N. gonorrhoeae ATCC49226; test: MIC (CLSI agar dilution); format: cell-based
[16] = Human plasma protein binding (PPB); details: plasma
[17] = physchem
[18] = Dog pharmacokinetics; format: in vivo, Beagle dog; details: beagle, dog, plasma
Procedure: AZD0914 was analyzed in mouse, rat, dog, monkey plasma using a qualified method which was later validated for human plasma analysis. The validated human method is described below and is representative of the approach taken in other species. AZD0914 was determined in human plasma prepared with K2EDTA as an anticoagulant. AZD0914 and an internal standard (^13C2, ^15N2 AZD0914) were extracted from plasma with tert- butyl methyl ether. After evaporating to dryness under a stream of nitrogen, the residue was reconstituted and quantitated by reverse phase HPLC-MS/MS against a standard curve from 1.00 to 5000 ng/ml. Separation was achieved using a gradient which went from 55% to 85% methanol:acetonitrile (1:1) containing 0.2% formic acid as mobile phase B and 0.2% formic acid in water as mobile phase A at a flow rate of 0.60 ml/min through a Phenomonex Gemini C18 column (50 x 2.0 mm column, […]) heated using a Shimadzu CTO-20AC set to 40 °C. AZD0914 was detected in multiple reaction monitoring (MRM) mode by positive ion electrospray ionization using a Sciex API5500 (Toronto, Canada) mass spectrometer. The ion spray voltage was set to 5500 V and turboionspray temperature was 650 °C. AZD0914 was quantitated using the MRM transition 488.2 → 348.2 using a collision energy of 29 eV. The internal standard, (^13C2, ^15N2 AZD0914), was monitored using identical conditions except for the MRM transition of 492.2 → 348.2.

[19] = comparative haematology analysis in the rat, oral dosing; details: for AUC: in vivo, po
[20] = system: mammalian erythroid cell lines; test: erythroid cytotoxicity (growth inhibition); format: cell-based; details: read-out: Erythroid IC50
Procedure: as §1

[21] = system: mammalian myeloid cell lines; test: myeloid cytotoxicity (growth inhibition); format: cell-based; details: read-out: Myeloid IC50
Procedure: as §1

[22] = system: resistant isolates of S. aureus, S. pneumoniae and N. gonorrhoeae; format: cell-based; details: for susceptibility of spontaneous ETX0914 resistant mutants: S. aureus and N. gonorrhoeae GyrB mutants
[23] = Table 2, first entry of the cell (ciprofloxacin: 250 mg UID line)

SMILES	IC50 [4] [µM]	IC50 [5] [µM]	IC50 [7] [µM]	IC50 [8] [µM]	IC50 [9] [µM]	MIC: S. aureus AP607004 (MRQR) [10] [µg/mL]	MIC: S. pneumoniae ARC2205 (ERQR) [11] [µg/mL]	MIC: S. aureus ARC516 [12] [µg/mL]	MIC: N. gonorrhoeae ARC4676 (QR) [13] [µg/mL]	MIC: S. pneumoniae ATCC49619 [14] [µg/mL]	MIC: N. gonorrhoeae ATCC49226 [15] [µg/mL]	Micronucleus NOEL ([2]; in vitro) [µM]	fraction unbound [16]	solubility [17] [µM]	Dog F [18] [%]	clearance [18] [mL/min/kg]	IC50 [20] [µM]	IC50 [21] [µM]	further results
CO/N=C(\C(=O)N[C@@H]1C(=O)N2C(C(=O)O)=C(CSc3nc(=O)c(=O)[nH]n3C)CS[C@H]12)c1csc(N)n1 [Ceftriaxone, reference compound]																			MIC90 for S. aureus [1]: 8 µg/mL
O=C(O)c1cn(C2CC2)c2cc(N3CCNCC3)c(F)cc2c1=O [Ciprofloxacin 2, Ciprofloxacin, reference compound]																			Micronucleus NOEL ([2]; mouse): 200 µM; MIC90, gonococcal infection (N. gonorrhoeae) [3, 23]: 0.06 to 0.12 µg/mL; MIC90, gonococcal infection (N. gonorrhoeae) ([3]; second entry of the cell, 500 mg UID line): 0.25 to 0.5 µg/mL
C[C@@H]1CN2c3c(cc4c(N5C(=O)OC[C@@H]5C)noc4c3F)CC3(C(=O)NC(=O)NC3=O)[C@H]2[C@H](C)O1 [Compound 1]	232	> 292	> 316	> 316	> 100														IC50 [6]: > 100 µM
Cc1noc2c(F)c3c(cc12)CC1(C(=O)NC(=O)NC1=O)[C@H]1[C@H](C)O[C@H](C)CN31 [Compound 5, (2R,4S,4aS)-11-Fluoro-2,4,8-trimethyl-2,4,4a,6-tetrahydro-1H,1'H-spiro[isoxazolo[4,5-g][1,4]oxazino[4,3-a]quinoline-5,5'-pyrimidine]-2',4',6'(3'H)-trione]	> 100	> 100	> 80	> 100	> 100	0.5 (≈ 1.24 µM)	2.0 (≈ 4.97 µM)	0.25 (≈ 0.621 µM)	0.5 (≈ 1.24 µM)	1.0 (≈ 2.49 µM)	0.5 (≈ 1.24 µM)	50	0.094	210 (≈ 84.5 µg/mL)	47	5.3			concentration giving a measurable genotoxicity signal in the in vitro MMA ([2]; mouse): 100 µM; IC50 [6]: > 100 µM
C[C@@H]1CN2c3c(cc4c(-n5cncn5)noc4c3F)CC3(C(=O)NC(=O)NC3=O)[C@H]2[C@H](C)O1 [Compound 6]	237	224	> 333	> 333	> 100	0.063 (≈ 0.138 µM)	0.125 (≈ 0.274 µM)	0.031 (≈ 0.0681 µM)	0.125 (≈ 0.274 µM)	0.125 (≈ 0.274 µM)	0.25 (≈ 0.549 µM)	3	0.13	73 (≈ 33.2 µg/mL)	99	4.5			haematologic effects ([19]; 100 mg/kg/day for 14 days in the rat): decreases in reticulocytes, neutrophils, lymphocytes and monocytes; AUC ([19]; rat, 100 mg/kg): 950 µM·h; AUC ([19]; rat, 250 mg/kg): 1700 µM·h; reticulocytes count ([19]; rat, 6 at the higher dose (250 mg/kg, 5 d), linezolid 6 d): significant suppression; neutrophil count ([19]; rat, both doses of 6, linezolid): showing suppression; lymphocyte counts ([19]; rat, higher dose of 6): leading to suppression; white blood cell count ([19]; rat, higher dose of 6): leading to suppression
C[C@@H]1CN2c3c(cc4c(C(=O)NCC(F)(F)F)noc4c3F)CC3(C(=O)NC(=O)NC3=O)[C@H]2[C@H](C)O1 [Compound 7]	91	> 90	> 100	> 100	> 100	0.25 (≈ 0.487 µM)	0.125 (≈ 0.243 µM)	0.125 (≈ 0.243 µM)	0.25 (≈ 0.487 µM)	0.125 (≈ 0.243 µM)	0.25 (≈ 0.487 µM)	100	0.13	77 (≈ 39.5 µg/mL)	74	5.8	95	43	IC50 [6]: > 100 µM
Cc1nnc(-c2noc3c(F)c4c(cc23)CC2(C(=O)NC(=O)NC2=O)[C@H]2[C@H](C)O[C@H](C)CN42)o1 [Compound 8]						0.25 (≈ 0.531 µM)	0.25 (≈ 0.531 µM)	0.25 (≈ 0.531 µM)	1 (≈ 2.13 µM)	0.125 (≈ 0.266 µM)	1 (≈ 2.13 µM)	> 200	0.13	1350 (≈ 635 µg/mL)	32	4.7	> 100	76	
CO/N=C1\CN(c2nc3c(cc2F)c(=O)c(C(=O)O)cn3C2CC2)CC1CN (stereo not drawn) [Gemifloxacin, reference compound]												3					7	10	concentration giving a measurable genotoxicity signal in the in vitro MMA [2]: 6 µM
C[C@H]1COc2c(N3CCN(C)CC3)c(F)cc3c(=O)c(C(=O)O)cn1c23 [Levofloxacin, reference compound]						8 (≈ 22.1 µM)	16 (≈ 44.3 µM)	0.25 (≈ 0.692 µM)		0.5 (≈ 1.38 µM)							88	79	
N#Cc1ccc2ccc(=O)n(CCN3CC[C@H](NCc4cc5c(cn4)OCCO5)[C@H](F)C3)c2c1 [NBTI 3, 1-[2-[(3R,4S)-4-(2,3-Dihydro-[1,4]dioxino[2,3-c]pyridin-7-ylmethylamino)-3-fluoro-1-piperidyl]ethyl]-2-oxo-quinoline-7-carbonitrile]																			susceptibility of fluoroquinolone resistant isolate ARC4680 ([22]; N. gonorrhoeae ARC4680): reduced susceptibility; susceptibility of spontaneous ETX0914 resistant mutants [22]: fully susceptible
CO[C@@H]1[C@@H](OC(N)=O)[C@@H](O)[C@H](Oc2ccc3c(O)c(NC(=O)c4ccc(O)c(CC=C(C)C)c4)c(=O)oc3c2C)OC1(C)C [Novobiocin 4, Novobiocin]																			susceptibility of fluoroquinolone resistant clinical isolates ([22]; S. aureus ARC2381, S. pneumoniae ARC2480, N. gonorrhoeae ARC4672, ARC4680, ARC4676): fully susceptible; susceptibility of spontaneous ETX0914 resistant mutants [22]: fully susceptible
CC1COc2c(N3CCN(C)CC3)c(F)cc3c(=O)c(C(=O)O)cn1c23 (stereo not drawn) [Ofloxacin, reference compound]																			MIC90, gonococcal infection (N. gonorrhoeae) [3, 23]: 0.25 to 0.5 µg/mL; MIC90, skin infection (S. aureus) ([1]; Table 2): 2 µg/mL (≈ 5.53 µM)
